Results as given in article PMC11928584, “H105A peptide eye drops promote photoreceptor survival in murine and human models of retinal degeneration” (Communications Medicine, 2025).
Where “and” joins values, the source holds several entries; their conditions need not be identical. Equal values may be shown once. Where a SMILES comes first, the peptide text is derived from it.

Columns and labels:
[1] = Fluorescence distribution of labeled peptides in retinal cross-sections; type: in vivo, C57BL/6J mice; conditions: Alexa Fluor 488-labeled peptide, eye drops, retinal cross-sections 1 h post-administration
Text: Fig. 1 Penetration and bioavailability of PEDF Peptides 17-mer, H105A, and R99A Delivered via Eye Drops in Mouse Retinas. a Peptide mapping and sequence. Tertiary structure of human PEDF highlighting the small peptide region with neurotrophic activity (17-mer) in blue (top). Primary structure of human PEDF showing the location of the 17-mer region (middle). Sequences of the 17-mer peptide and its variants, H105A and R99A (bottom). b In vivo detection of peptides. Fundus micrographs showing fluorescence from Alexa Fluor 488-labeled 17-mer, H105A, and R99A peptides in the eyes of C57BL/6J mice at P21 days after eye drop administration of 5 µl of peptide at 1 mg/ml (left). Fundus images were taken at 1, 3-, 6-, 24-, and 48 h post-administration. Quantification of fluorescence intensity over time post-administration (right). […] The amount of peptide was quantified from the fluorescence in retinal extracts using standard curves (Supplementary Fig. 1a). Each data point represents the amount of each peptide per eye with three eyes (n = 3) per time point. d Retinal cross-sections showing fluorescence distribution in the photoreceptor layer 1 h after applying eye drops as in Panel B. Representative images for labeled 17-mer, H105A, and R99A peptides are shown, with magnified areas of 17-mer and H105A indicated by dotted rectangles. […]

[2] = system: human iPSC-derived retinal organoids exposed to CSE; test: TUNEL staining of retinal organoid sections; type: cell-based; conditions: Figure 8f, individual values, n=5
Protocol: Human iPSCs were differentiated into retinal organoids (ROs) following the protocol by Zhong et al.[41]. Briefly, on Day 0, hiPSC colonies were dissociated with dispase and grown in a suspension to form embryoid bodies, and slowly transitioned to neural induction media (DMEM/F12 (1:1), 1% N2 supplement (Invitrogen), 1 x minimum essential media-nonessential amino acids (NEAAs), 2 µg/ml heparin (Sigma)). On Day 7, EBs were seeded on Matrigel coated plates and maintained in neural induction media. On Day 16, the media was switched to the retinal differentiation medium (DMEM/F12 (3:1), 2% B27 (without vitamin A, Invitrogen), 1x NEAA and 1% antibiotic–antimycotic (Gibco)). Retinal domains were identified and lifted manually with tungsten needles between Day 21 and Day 26 under a phase contrast microscope. On day 30, the culture medium was transitioned to DMEM/F12 (3:1) with 2% B27, 1x NEAA, 1% antibiotic–antimycotic, 10% fetal bovine serum (FBS; Gibco), […] Taurine (Sigma), and 2 mM GlutaMAX (Invitrogen). Additionally, 1 µM retinoic acid supplement was introduced daily starting from day 63. On day 91, the medium was modified to DMEM/F12 (1:1) supplemented with 1% N2, 1 x NEAAs, 1% antibiotic–antimycotic, 10% FBS, […] Taurine and 2 mM GlutaMAX, and the concentration of retinoic acid supplementation was reduced to 0.5 µM for the remainder of the culture period. The use of hiPSCs in this study conforms to the University of Colorado Institutional Biosafety Committee standards. […]
D180 ROs were treated with each of the 5 experimental conditions, as described above (n = 5 for each condition), washed with PBS three times, and fixed with 4% paraformaldehyde for 10 min at room temperature. […] Fluorescence images were acquired with a Nikon C2 Confocal Microscope A1 (Minato City, Tokyo, Japan) and stitched together using Nikon Elements Software. Images were analysed with Fiji. The relative area of positive immunostaining was calculated as a percentage of total retinal area. […]

| distribution of labeled peptide in photoreceptor layer [1] | SMILES | Relative TUNEL(+) area ([2]; CSE + peptide 1nM) | Relative TUNEL(+) area ([2]; CSE + peptide 20nM) |
| --- | --- | --- | --- |
| decorated the OS in a punctuated fashion | CC[C@H](C)[C@H](NC(=O)[C@H](CC(C)C)NC(=O)[C@H](CC(=O)O)NC(=O)[C@H](Cc1ccc(O)cc1)NC(=O)[C@H](Cc1ccc(O)cc1)NC(=O)[C@H](CC(C)C)NC(=O)[C@H](C)NC(=O)[C@H](CCCNC(=N)N)NC(=O)[C@H](Cc1c[nH]cn1)NC(=O)[C@@H](NC(=O)[C@@H](NC(=O)[C@H](CO)NC(=O)[C@H](CCC(=O)O)NC(=O)[C@@H](NC(=O)[C@H](CCCNC(=N)N)NC(=O)[C@@H](N)CCC(N)=O)[C@@H](C)O)[C@@H](C)CC)[C@@H](C)CC)C(=O)N[C@@H](CO)C(=O)O [17-mer] (H-QRTESIIHRALYYDLIS-OH) |  |  |
|  | CC[C@H](C)[C@H](NC(=O)[C@H](CC(C)C)NC(=O)[C@H](CC(=O)O)NC(=O)[C@H](Cc1ccc(O)cc1)NC(=O)[C@H](Cc1ccc(O)cc1)NC(=O)[C@H](CC(C)C)NC(=O)[C@H](C)NC(=O)[C@H](CCCNC(=N)N)NC(=O)[C@H](C)NC(=O)[C@@H](NC(=O)[C@@H](NC(=O)[C@H](CO)NC(=O)[C@H](CCC(=O)O)NC(=O)[C@@H](NC(=O)[C@H](CCCNC(=N)N)NC(=O)[C@@H](N)CCC(N)=O)[C@@H](C)O)[C@@H](C)CC)[C@@H](C)CC)C(=O)N[C@@H](CO)C(=O)O [H150A] (H-QRTESIIARALYYDLIS-OH) | 2.16 and 2.78 and 3.68 and 2.70 and 2.54 | 1.75 and 2.66 and 2.53 and 2.94 and 1.87 |
